Target: T1, human αVβ6 (Homo sapiens, UniProt P06756+P18564)
T1 construct: purchased R & D systems 3817-AV
Assay: human αVβ6 HTRF binding assay
Conditions: recombinant human αVβ6 integrin, FITC-conjugated fibronectin
Description: All binding assays used the HTRF (homogeneous time resolved fluorescence) technology from Cisbio International, therefore all assays are described as HTRF binding assays. The assay results for the Examples are listed above together with the characterization data. The HTRF binding assays are established for the following integrins: human αVβ6, human αVβ1, human αVβ3, human αVβ5, and human αVβ8. All assays used the following assay buffer: 20 mM Tris, pH 7.4, 1 mM MgCl2, 1 mM MnCl2, 0.01% Tween 20, and 0.01% BSA. Alternatively, a SPA-based assay was used for evaluation of receptor binding.
The following describes the components and a representative procedure for the human αVβ6 HTRF binding assay: Recombinant human αVβ6 Integrin (R & D systems, 3817-AV) was biotinylated. Biotinylated human αVβ6 Integrin was added to assay vessel at a final concentration of 1.25 nM. FITC-conjugated fibronectin (Cytoskeleton, FNR02) was then added at the final concentration of 5 nM. The mixture was centrifuged at 600 rpm for three minutes using Thermo Fisher Heraeus Multifuge X3 centrifuge and then incubated at RT for an hour. Streptavidin Terbium (Cisbio international 610STLB) was then added at the final concentration of 0.625 nM. The resulting mixture was centrifuged at 600 rpm for three minutes using Thermo Fisher Heraeus Multifuge X3 centrifuge and then incubated at room temperature overnight in dark before reading HTRF signals.

T1 sequence (P06756 31-992 limits assumed): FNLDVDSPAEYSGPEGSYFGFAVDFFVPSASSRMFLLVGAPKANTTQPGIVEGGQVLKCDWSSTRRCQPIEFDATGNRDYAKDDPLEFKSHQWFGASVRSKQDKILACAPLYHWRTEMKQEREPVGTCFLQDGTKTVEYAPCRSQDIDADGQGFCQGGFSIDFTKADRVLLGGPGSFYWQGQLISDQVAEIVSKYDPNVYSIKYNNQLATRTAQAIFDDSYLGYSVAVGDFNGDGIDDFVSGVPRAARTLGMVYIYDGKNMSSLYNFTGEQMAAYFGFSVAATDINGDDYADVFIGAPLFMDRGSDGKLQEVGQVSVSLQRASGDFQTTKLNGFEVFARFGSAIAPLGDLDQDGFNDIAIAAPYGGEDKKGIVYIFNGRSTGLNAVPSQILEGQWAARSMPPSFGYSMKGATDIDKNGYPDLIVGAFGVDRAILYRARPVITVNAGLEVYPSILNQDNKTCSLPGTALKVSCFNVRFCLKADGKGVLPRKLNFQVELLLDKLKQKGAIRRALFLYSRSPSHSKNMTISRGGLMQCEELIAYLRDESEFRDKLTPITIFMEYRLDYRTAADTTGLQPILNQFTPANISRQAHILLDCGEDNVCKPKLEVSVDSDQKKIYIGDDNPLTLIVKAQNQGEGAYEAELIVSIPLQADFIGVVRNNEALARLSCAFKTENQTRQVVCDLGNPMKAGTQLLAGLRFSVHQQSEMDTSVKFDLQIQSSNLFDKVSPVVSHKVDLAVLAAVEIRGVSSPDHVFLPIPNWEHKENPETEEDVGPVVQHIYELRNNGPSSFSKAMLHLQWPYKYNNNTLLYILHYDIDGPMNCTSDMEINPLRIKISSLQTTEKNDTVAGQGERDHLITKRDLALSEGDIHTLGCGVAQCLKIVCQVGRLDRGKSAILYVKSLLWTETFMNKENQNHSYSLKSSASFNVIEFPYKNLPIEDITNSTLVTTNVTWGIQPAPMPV
T1 sequence (P18564 22-707 limits assumed): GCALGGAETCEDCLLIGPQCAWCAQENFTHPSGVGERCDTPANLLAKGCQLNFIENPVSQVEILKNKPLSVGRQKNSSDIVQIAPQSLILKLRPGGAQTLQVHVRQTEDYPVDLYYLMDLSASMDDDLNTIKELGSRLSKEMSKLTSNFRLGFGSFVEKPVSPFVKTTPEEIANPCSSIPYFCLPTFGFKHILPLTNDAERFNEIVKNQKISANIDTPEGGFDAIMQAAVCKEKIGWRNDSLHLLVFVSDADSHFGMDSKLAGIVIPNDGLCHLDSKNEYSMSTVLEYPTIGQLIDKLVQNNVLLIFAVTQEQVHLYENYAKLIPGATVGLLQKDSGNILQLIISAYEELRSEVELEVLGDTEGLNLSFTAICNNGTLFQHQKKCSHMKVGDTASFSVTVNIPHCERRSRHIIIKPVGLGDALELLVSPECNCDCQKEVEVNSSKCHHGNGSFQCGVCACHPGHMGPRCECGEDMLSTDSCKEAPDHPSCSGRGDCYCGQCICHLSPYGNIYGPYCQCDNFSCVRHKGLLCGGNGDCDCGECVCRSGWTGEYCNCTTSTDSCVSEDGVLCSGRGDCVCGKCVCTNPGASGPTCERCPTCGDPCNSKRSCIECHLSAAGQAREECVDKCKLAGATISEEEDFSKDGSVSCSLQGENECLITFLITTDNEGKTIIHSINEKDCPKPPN

Row | IC50 [µM] | Structure (SMILES)
1 | 0.021 | O=C(O)CC(c1cncc(N2CCCC2)c1)n1ccc(CCCc2ccc3c(n2)NCCC3)n1 (racemic) [Example 66, (±)-3-[5-(pyrrolidin-1-yl)pyridin-3-yl]-3-{3-[3-(5,6,7,8-tetrahydro-1,8-naphthyridin-2-yl)propyl]-1H-pyrazol-1-yl}propanoic acid]
2 | 0.006 | O=C(O)CC(c1cccc(N2CCOCC2)c1)c1nc(CCCCc2ccc3c(n2)NCCC3)cs1 (single isomer, unassigned) [Example 126, 3-(3-morpholinophenyl)-3-(4-(4-(5,6,7,8-tetrahydro-1,8-naphthyridin-2-yl)butyl)thiazol-2-yl)propanoic acid]
3 | 0.21 | COc1ccc(C(CC(=O)O)n2ccc(CCCc3ccc4c(n3)NCCC4)n2)cn1 (single isomer, unassigned) [Example 4, 3-(6-Methoxypyridin-3-yl)-3-(3-(3-(5,6,7,8-tetrahydro-1,8-naphthyridin-2-yl)propyl)-1H-pyrazol-1-yl)propanoic acid]
4 | 4.8 | Cc1ncc([C@@H](CC(=O)O)n2cc(F)c(CCCc3ccc4c(n3)NCCC4)n2)cn1 [Example 114, (R)-3-(4-fluoro-3-(3-(5,6,7,8-tetrahydro-1,8-naphthyridin-2-yl)propyl)-1H-pyrazol-1-yl)-3-(2-methylpyrimidin-5-yl)propanoic acid]
5 | 0.01 | COc1ncc(C(CC(=O)O)n2ccc(CCCc3ccc4c(n3)NCCC4)n2)cn1 (racemic) [Example 34, (±)-3-(2-Methoxypyrimidin-5-yl)-3-(3-(3-(5,6,7,8-tetrahydro-1,8-naphthyridin-2-yl)propyl)-1H-pyrazol-1-yl)propanoic acid]
6 | 0.5 | COc1cnc(C(CC(=O)O)n2nccc2CCCc2ccc3c(n2)NCCC3)cn1 (racemic) [Example 60, (±)-3-(5-Methoxypyrazin-2-yl)-3-(5-(3-(5,6,7,8-tetrahydro-1,8-naphthyridin-2-yl)propyl)-1H-pyrazol-1-yl)propanoic acid]
7 | 0.043 | COc1ncc(C(CC(=O)O)n2ncc(CCCc3ccc4c(n3)NCCC4)n2)cn1 (single isomer, unassigned) [Example 176, 3-(2-methoxypyrimidin-5-yl)-3-(4-(3-(5,6,7,8-tetrahydro-1,8-naphthyridin-2-yl)propyl)-2H-1,2,3-triazol-2-yl)propanoic acid]
8 | 0.0019 | Cc1ncc(C(CC(=O)O)c2nc(CCCc3ccc4c(n3)NCCC4)cs2)cn1 (single isomer, unassigned) [Example 147, 3-(2-methylpyrimidin-5-yl)-3-(4-(3-(5,6,7,8-tetrahydro-1,8-naphthyridin-2-yl)propyl)thiazol-2-yl)propanoic acid]
9 | 0.015 | COc1ccc(C(CC(=O)O)n2nccc2CCCc2ccc3c(n2)NCCC3)cc1F (racemic) [Example 71, (±)-3-(3-fluoro-4-methoxyphenyl)-3-{5-[3-(5,6,7,8-tetrahydro-1,8-naphthyridin-2-yl)propyl]-1H-pyrazol-1-yl}propanoic acid]
10 | 0.0029 | CCOc1ncc(C(CC(=O)O)c2nc(CCCCc3ccc4c(n3)NCCC4)cs2)cn1 (single isomer, unassigned) [Example 130, 3-(2-ethoxypyrimidin-5-yl)-3-(4-(4-(5,6,7,8-tetrahydro-1,8-naphthyridin-2-yl)butyl)thiazol-2-yl)propanoic acid]
11 | 0.0025 | COc1ccc(C(CC(=O)O)c2nc(CCCCc3ccc4c(n3)NCCC4)cs2)cc1OC (single isomer, unassigned) [Example 124, 3-(3,4-dimethoxyphenyl)-3-(4-(4-(5,6,7,8-tetrahydro-1,8-naphthyridin-2-yl)butyl)thiazol-2-yl)propanoic acid]
12 | 0.15 | COc1ccc(C(CC(=O)O)n2ccc(CCCc3ccc4c(n3)NCCCC4)n2)cn1 (single isomer, unassigned) [Example 102, 3-(6-methoxypyridin-3-yl)-3-(3-(3-(6,7,8,9-tetrahydro-5H-pyrido[2,3-b]azepin-2-yl)propyl)-1H-pyrazol-1-yl)propanoic acid]
13 | 0.035 | COc1ccc(C(CC(=O)O)c2ccn(CCCc3ccc4c(n3)NCCC4)n2)cn1 (stereo not shown) [Example 113, 3-(6-methoxypyridin-3-yl)-3-(1-(3-(5,6,7,8-tetrahydro-1,8-naphthyridin-2-yl)propyl)-1H-pyrazol-3-yl)propanoic acid]
14 | 0.027 | COc1ccc(C(CC(=O)O)n2ncc(CCCc3ccc4c(n3)NCCC4)n2)cn1 (single isomer, unassigned) [Example 171, 3-(6-methoxypyridin-3-yl)-3-(4-(3-(5,6,7,8-tetrahydro-1,8-naphthyridin-2-yl)propyl)-2H-1,2,3-triazol-2-yl)propanoic acid]
15 | 0.0019 | CN(C)C(=O)c1cccc(C(CC(=O)O)c2nc(CCCCc3ccc4c(n3)NCCC4)cs2)c1 (single isomer, unassigned) [Example 118, 3-(3-(dimethylcarbamoyl)phenyl)-3-(4-(4-(5,6,7,8-tetrahydro-1,8-naphthyridin-2-yl)butyl)thiazol-2-yl)propanoic acid]
16 | 0.17 | COc1ccc(C(CC(=O)O)n2cc(CCCc3ccc4c(n3)NCCC4)cn2)cn1 (racemic) [Example 62, (±)-3-(6-Methoxypyridin-3-yl)-3-(4-(3-(5,6,7,8-tetrahydro-1,8-naphthyridin-2-yl)propyl)-1H-pyrazol-1-yl)propanoic acid]
17 | 1.06 | COc1ccc(C(CC(=O)O)c2nc(CCCCc3ccc4c(n3)NCCC4)c(C)o2)cc1F (stereo not shown) [Example 181, 3-(3-fluoro-4-methoxyphenyl)-3-(5-methyl-4-(4-(5,6,7,8-tetrahydro-1,8-naphthyridin-2-yl)butyl)oxazol-2-yl)propanoic acid]
18 | 0.0037 | CN(C)C(=O)c1cccc(C(CC(=O)O)c2nc(CCCc3ccc4c(n3)NCCC4)cs2)c1 (single isomer, unassigned) [Example 140, 3-(3-(dimethylcarbamoyl)phenyl)-3-(4-(3-(5,6,7,8-tetrahydro-1,8-naphthyridin-2-yl)propyl)thiazol-2-yl)propanoic acid]
19 | 0.17 | O=C(O)CC(c1cnc2ccccc2c1)n1ncc(CCCc2ccc3c(n2)NCCC3)n1 (single isomer, unassigned) [Example 174, 3-(quinolin-3-yl)-3-(4-(3-(5,6,7,8-tetrahydro-1,8-naphthyridin-2-yl)propyl)-2H-1,2,3-triazol-2-yl)propanoic acid]
20 | 0.0085 | COc1ncc([C@H](CC(=O)O)n2ccc(CCCc3ccc4c(n3)NCCC4)n2)cn1 [Example 82, (S)-3-(2-methoxypyrimidin-5-yl)-3-(3-(3-(5,6,7,8-tetrahydro-1,8-naphthyridin-2-yl)propyl)-1H-pyrazol-1-yl)propanoic acid]
21 | 0.22 | COc1ncc([C@H](CC(=O)O)n2ccc(CCC[C@@H]3CCc4cccnc4N3)n2)cn1 [Example 90, (S)-3-(2-methoxypyrimidin-5-yl)-3-(3-(3-((R)-1,2,3,4-tetrahydro-1,8-naphthyridin-2-yl)propyl)-1H-pyrazol-1-yl)propanoic acid]
22 | 6.7 | COc1ncc(C(CC(=O)O)n2nccc2CCC[C@H]2CCc3cccnc3N2)cn1 (mixture of isomers) [Example 92, 3-(2-methoxypyrimidin-5-yl)-3-(5-(3-((S)-1,2,3,4-tetrahydro-1,8-naphthyridin-2-yl)propyl)-1H-pyrazol-1-yl)propanoic acid]

— patent publication US11884661B2, “3-substituted propionic acids as αV integrin inhibitors” (BRISTOL-MYERS SQUIBB COMPANY, priority 2016, dated 2024)
